Assays:
kidney = conditions: in vivo; cited from earlier work
[1] = tested on: patients suffering from Type I diabetes with overt diabetic nephropathy; assay: Multicenter, randomized, double-blind, placebo-controlled study: time to doubling of baseline serum creatinine; format: in vivo, human
Experimental: (§1) Renal function was measured every three months using serum creatinine levels, and creatinine clearance rates. In addition, the glomerular filtration rate was measured at entry and every six months. Study participants were treated at one of two dosage levels, (150 mg and 300 mg B.I.D.).
Time to doubling of baseline serum creatinine was measured. Study participants were also treated with standard measures for blood pressure control, and diabetes management, including insulin treatment, diet, and exercise. Serum creatinine levels were made at baseline and randomization visits, at the end of weeks 1-6, the end of month 2, the end of month 3, and then every 3 months for the remainder of the study. “Baseline serum creatinine” was the mean of the levels at the baseline and randomization visits. If the level at any subsequent visit was at least two times the baseline, and was confirmed by a second measurement, the patient was considered to have experienced a doubling of baseline serum creatinine. Serum creatinine levels were determined by a clinical laboratory (SciCor Inc., 8211 SciCor Drive, Indianapolis, Ind. 46214-2985).

[2] = tested on: red blood cell (RBC) deformability; conditions: in vivo; cited from earlier work
[3] = tested on: streptozotocin-diabetic rat; conditions: streptozotocin-diabetic rat model; cited from earlier work
[4] = tested on: patients suffering from Type I diabetes with overt diabetic nephropathy; assay: Same clinical study: 24 hour urinary protein excretion; format: in vivo, human
Experimental: as §1
(FIG. 1). The reduction was generally first observed at the first post-randomization evaluation (at three months) and increased in magnitude over the duration of the study. […] (FIG. 2).

[5] = tested on: patients suffering from Type I diabetes with overt diabetic nephropathy; assay: Same clinical study: progression of diabetic retinopathy, three or more steps in ETDRS scale; format: in vivo, human
diabetic rats = conditions: cited from earlier work

N=C(N)NN [Pimagedine, aminoguanidine]
Immunoglobulin trapping in the kidney (kidney): reduction
Patients with adjudicated doubling of serum creatinine (%) ([1]; Baseline serum creatinine less than 1.5 mg/dL, Combined): (10%)
Odds ratio, doubling of serum creatinine ([1]; Baseline serum creatinine less than 1.5 mg/dL, Combined versus placebo): 0.59
Patients with adjudicated doubling of serum creatinine (%) ([1]; Baseline serum creatinine less than 1.5 mg/dL, High Dose): (10%)
Odds ratio, doubling of serum creatinine ([1]; Baseline serum creatinine less than 1.5 mg/dL, High Dose versus placebo): 0.52
Patients with adjudicated doubling of serum creatinine (%) ([1]; Baseline serum creatinine less than 1.5 mg/dL, Low Dose): (11%)
Odds ratio, doubling of serum creatinine ([1]; Baseline serum creatinine less than 1.5 mg/dL, Low Dose versus placebo): 0.64
Patients with adjudicated doubling of serum creatinine (%) ([1]; Combined doses): (20%)
Odds ratio, doubling of serum creatinine ([1]; Combined versus placebo): 0.73
Patients with adjudicated doubling of serum creatinine (%) ([1]; High Dose (300 mg B.I.D.), listed as pimagendine): 20%
Odds ratio, doubling of serum creatinine ([1]; High Dose versus placebo): 0.73
Patients with adjudicated doubling of serum creatinine (%) ([1]; Low Dose (150 mg B.I.D.)): (20%)
Patients with adjudicated doubling of serum creatinine (%) ([1]; Low Dose (150 mg B.I.D.), listed as pimagendine): 20%
Odds ratio, doubling of serum creatinine ([1]; Low Dose versus placebo): 0.72
Reduction in the risk of doubling serum creatinine ([1]; all patients, versus placebo): 29%
Patients with adjudicated doubling of serum creatinine (%) ([1]; high dose (300 mg B.I.D.)): (20%)
Reduction of the risk of doubling serum creatinine ([1]; patients with a baseline serum creatinine of less than 1.5 mg/dL): 63%
Diabetes-induced changes in the deformability of red blood cells [2]: prevent
Increased glomerular basement membrane thickness [3]: prevented
24 hour urinary protein excretion ([4]; high dose (300 mg B.I.D.)): statistically significant reductions
24 hour urinary protein excretion ([4]; low dose (150 mg B.I.D.)): statistically significant reductions
Effect on proteinuria ([4]; patients with a baseline serum creatinine of less than 1.5 mg/dL compared with whole population): greater effect
% of patients with a ≧ 3 step progression in ETDRS score ([5]; Combined): (10%)
Logistic regression model odds ratio, ≧ 3 step retinopathy progression ([5]; Combined versus placebo): 0.53
% of patients with a ≧ 3 step progression in ETDRS score ([5]; High Dose): (8%)
Logistic regression model odds ratio, ≧ 3 step retinopathy progression ([5]; High Dose versus placebo): 0.68
% of patients with a ≧ 3 step progression in ETDRS score ([5]; Low Dose): (11%)
Logistic regression model odds ratio, ≧ 3 step retinopathy progression ([5]; Low Dose versus placebo): 0.58
Incidence of progression of retinopathy from baseline to endpoint ([5]; progression of three or more steps in ETDRS scale): decreased
Aortic wall protein cross-linking (diabetic rats): diminishes
